Reference: paper PMC12560828, “Chemical structure drives developmental toxicity of alkyl-substituted naphthalenes in zebrafish” (Environment international, 2025)

Columns and labels:
[1] = tested on: zebrafish larvae, 120 hpf; experiment: Larval photomotor response (LPR) assay after vial exposure; type: in vivo, Danio rerio; details: for fold_change: LPR
Protocol: (§1) When embryos were 6 hpf they were bleached in groups of 1000 or less to limit bacterial growth in sealed vials. Embryos were placed in a strainer for transfer between solutions in 500 mL containers. […] Pools of eight embryos were placed into 2 mL clear glass screw cap exposure vials with polyvinyl-faced pulp liner (Avantar Radnor, PA, United States) using a glass Pasteur pipette. Excess EM was removed, and 2 mL of fresh EM was immediately added. A total of 10 uL of 200x working stock (in DMSO) was added to each vial, then immediately capped and inverted three times to mix. […] Vials were loaded into a custom 3D printed vial holder for slow end-over-end rotation in a dark 28 °C incubator overnight. […] At 24 hpf, embryos were removed from exposure vials and singulated into 96-well plates loaded with 100 μL chemical-free EM. Each exposure vial group was maintained in plate columns. After loading into 96-well plates, embryos were assessed for 24-hour mortality. For the remainder of the exposure, plates were kept stationary at 28 °C in the dark, until 120 hpf when morphology screening and the larval photo motor response (LPR) assay were conducted, section 2.3.2 and section 2.3.3, respectively.
Each treatment group was replicated over four vials, resulting in 32 embryos per treatment, split over two replicate 96-well plates per chemical. […] Vial groups of plated larvae were tracked to assess the impact of the vial on the results. All reported concentrations were nominal water concentrations and are included in SI-T4.
The LPR assay was conducted at 120 hpf. […] Larval movement was tracked throughout minutes 6–24. Animals dead or morphologically abnormal were excluded from the analysis, and if more than 30 % of the wells in a treatment group were excluded, the treatment was removed.
Movement values were binned into 6s intervals, log normalized and used to calculate area under the curve (AUC). AUC values from the first cycle after calibration were used to calculate the LEL for each period (light and dark).

[2] = tested on: early life stage zebrafish (Danio rerio) embryos; experiment: Developmental toxicity morphology screen, sealed rotating vial exposure; type: in vivo; set-up: bmd, MO24 / bmd, MORT / bmd, ANY_ / bmd, AXIS / bmd, CRAN / bmd, EDEM / bmd, LTRK / bmd, MUSC / bmdL, ANY_ / bmdU, ANY_ / bmdL, AXIS / bmdU, AXIS / bmdL, CRAN / bmdU, CRAN / bmdL, EDEM / bmdU, EDEM / bmdL, LTRK / bmdU, LTRK / bmdL, MO24 / bmdU, MO24 / bmdL, MORT / bmdU, MORT: unit not given here; details: for BMC50 AXIS (curved or bent body axis at 120 hpf) / BMC50 CRAN (craniofacial malformation at 120 hpf) / BMC50 MO24 (mortality at 24 hpf) / BMC50 MORT (mortality at 120 hpf) / BMC50 EDEM (pericardial and/or yolk sac edema at 120 hpf) / BMC50 LTRK (lower trunk and/or caudal fin at 120 hpf): Fig. 2; for BMC50 AXIS (curved or bent body axis at 120 hpf) / BMC50 CRAN (craniofacial malformation at 120 hpf) / BMC50 MO24 (mortality at 24 hpf) / BMC50 MORT (mortality at 120 hpf) / BMC50 Any effect / BMC50 EDEM (pericardial and/or yolk sac edema at 120 hpf) / BMC50 LTRK (lower trunk and/or caudal fin at 120 hpf): nominal concentration; for BMC50 Any effect: Fig. 2 heatmap, exposure 6-24 hpf in vials, summary of all endpoints; for any effect BMD50: SI-T5; for bmd, MO24 / bmd, MORT / bmd, ANY_ / bmd, AXIS / bmd, CRAN / bmd, EDEM / bmd, LTRK: benchmark dose; for bmd, MO24: endpoint MO24; for bmd, MORT: endpoint MORT; for bmd, ANY_: morphology endpoint ANY_ (any effect); for bmd, AXIS: morphology endpoint AXIS; for bmd, CRAN: morphology endpoint CRAN; for bmd, EDEM: morphology endpoint EDEM; for bmd, LTRK: morphology endpoint LTRK
Protocol: as §1
Each treatment group was replicated over four vials, resulting in 32 embryos per treatment, split over two replicate 96-well plates per chemical. […] All reported concentrations were nominal water concentrations and are included in SI-T4.
At 24 hpf embryos were assessed for mortality (MO24). At 120 hpf embryos were assessed for abnormality in […] morphological endpoints: mortality (MORT), edemas (EDEM), bent axis (AXIS), touch response (TCHR), craniofacial (CRAN), muscular/cardiovascular (MUSC), lower trunk (LRTK), brain (BRAN), skin (SKIN), and notochord malformations (NC). Morphological assessments were made by a team of three to four individuals. The team was blinded to the identity, plate layout, and concentrations of the chemicals, thereby minimizing bias in morphological screening assessment. To ensure the assessments were consistent, concentration–response reproducibility of a parathion ethyl quality control plate was performed along with each experimental exposure set up. Details of all measured endpoints can be found at Developmental toxicity zebrafish phenotype atlas. […] Each endpoint was scored as a binary presence/absence and scores were compiled into an “Any effect” endpoint, the presence of abnormality in any individual endpoint.
The Any effect percent was used to calculate the BMC50, 50 % change relative to the background for each endpoint and chemical. All values were reported as the nominal exposure concentration.

[3] = period dark, round 1, conc 3.125
[4] = period dark, round 1, conc 6.25
[5] = period dark, round 1, conc 12.5
[6] = period light, round 1, conc 3.125
[7] = period light, round 1, conc 6.25
[8] = period light, round 1, conc 12.5

Row | SMILES | fold_change [1, 3] | fold_change [1, 4] | fold_change [1, 5] | fold_change [1, 6] | fold_change [1, 7] | fold_change [1, 8] | BMC50 AXIS (curved or bent body axis at 120 hpf) [2] [µM] | BMC50 CRAN (craniofacial malformation at 120 hpf) [2] [µM] | BMC50 MO24 (mortality at 24 hpf) [2] [µM] | BMC50 MORT (mortality at 120 hpf) [2] [µM] | BMC50 Any effect [2] [µM] | any effect BMD50 [2] [µM] | bmd, MO24 [2] | bmd, MORT [2] | bmd, ANY_ [2] | bmd, AXIS [2] | bmd, CRAN [2] | BMC50 EDEM (pericardial and/or yolk sac edema at 120 hpf) [2] [µM] | BMC50 LTRK (lower trunk and/or caudal fin at 120 hpf) [2] [µM] | bmd, EDEM [2] | other results
1 | CCc1cccc2ccccc12 [1-ethylnaphthalene] | 0.05526 | 0.06428 | -0.02558 | -0.3674 | -0.401 | -0.744 | 43.9 | 46.3 | 44.6 | 41.9 | 33.7 | 33.7 | 44.6047 | 41.9285 | 33.6977 | 43.8887 | 46.3281 |  |  |  | fold_change ([1]; period dark, round 1, conc 25): -0.1629; fold_change ([1]; period dark, round 2, conc 30): -0.2464; fold_change ([1]; period dark, round 2, conc 37.5): -0.2326; fold_change ([1]; period light, round 1, conc 25): 0.4136; fold_change ([1]; period light, round 2, conc 30): 0.3971; fold_change ([1]; period light, round 2, conc 37.5): -0.206
2 | Cc1cc2cccc(C)c2cc1C [1,6,7-trimethylnaphthalene] | -0.2752 | -0.07056 | -0.09309 | -0.921 | -0.5316 | -0.2101 | 32.1 | 28.2 | 38.9 | 31.5 | 21.4 | 21.39 | 38.9242 | 31.4823 | 21.386 | 32.075 | 28.1944 | 34.7 | 32.9 | 34.7005 | fold_change ([1]; period dark, round 2, conc 12.8): -0.1665; fold_change ([1]; period dark, round 2, conc 16): -0.296; fold_change ([1]; period dark, round 2, conc 20): -0.09002; fold_change ([1]; period light, round 2, conc 12.8): 0.6308; fold_change ([1]; period light, round 2, conc 16): -0.8625; fold_change ([1]; period light, round 2, conc 20): 0.7418; bmd, LTRK [2]: 32.865
3 | Cc1cc2c(C)ccc(C)c2cc1C [1,4,6,7-tetramethylnaphthalene] | 0.4047 | -0.3364 | -0.3332 | -0.4049 | 0.02072 | -0.2213 | 21.1 | 23.9 | 35.4 | 29.4 | 20.5 | 20.47 | 35.4057 | 29.3744 | 20.4728 | 21.1106 | 23.8517 | 22.5 | 22.6 | 22.5215 | bmd, LTRK [2]: 22.6067
4 | Cc1ccc2ccccc2c1C [1,2-dimethylnaphthalene] |  |  |  |  |  |  |  |  |  |  |  |  |  |  |  |  |  |  |  |  | LPR behavioral effect ([1]; 120 hpf, light/dark periods, result in words): active
5 | Cc1ccc2c(C)cccc2c1 [1,6-dimethylnaphthalene] |  |  |  |  |  |  | 46.6 | 42.5 | 46.6 | 43.4 | 34.6 | 34.56 | 46.5621 | 43.4183 | 34.5645 | 46.5655 | 42.4789 | 46 |  | 45.9847 | 
